Laboratory results: patent US4250178A, “Amides derived from carboxyl-5 pyrimidines” (Delalande S.A., priority 1978, dated 1981)
Counter-ions that a name gives are not always drawn.

Tests used:
[1] = tested on: apomorphine straightening; test: test of antagonism to apomorphine straightening in mice, intraperitoneal (Gouret); type: in vivo; settings: Mus musculus, ip, read-out: Apomorphine straightening ED 50
[2] = acute toxicity in mice, intraperitoneal (Miller and Tainter); settings: mouse, in vivo, ip, read-out: Acute toxicity (mice) LD 50
Text: The acute toxicity was studied in mice intraperitoneally and the lethal doses estimated according to the method described by Miller and Tainter in Proc. Soc. Exper.

SMILES	ED50 [1] [mg/kg]	LD50 [2] [mg/kg]
CCN(CCNC(=O)c1cnc(C)nc1OC)Cc1ccc(F)cc1 [compound 780886]	10	140
COc1nc(N)ncc1C(=O)NCC1CCCN1Cc1ccc(F)cc1 (stereo not shown) [77.1047]	4.5	130
CCN(CCNC(=O)c1cnc(N)nc1OC)Cc1ccccc1 [77.0489]	3	330
COc1nc(N)ncc1C(=O)NCCNc1ccccc1 [77.0580]	30	400
C=CCN1CCCC1CNC(=O)c1cnc(C)nc1OC (stereo not shown) [compound 780784]	5.5	280
CCN1CCCC1CNC(=O)c1cnc(NC)nc1OC (stereo not shown) [compound 771226]	1.4	110
COc1nc(N)ncc1C(=O)N1CC1 [77.1017]	15	300
CCCN1CCCC1CNC(=O)c1cnc(N)nc1OC (stereo not shown) [compound 771120]	3.4	180
CCCOc1nc(N)ncc1C(=O)NCC1CCCN1CC (stereo not shown) [77.0621]	15	150
COc1nc(N)ncc1C(=O)NC1CCN(Cc2ccccc2)CC1 [77.0208]	3.5	500
CCN1CCCC1CNC(=O)c1cnc(OC)nc1OC (stereo not shown) [77.1243]	15	150
COc1nc(C)ncc1C(=O)NCCN1CCN(c2ccccc2)CC1 [compound 780522]	10	130
CCOc1nc(N)ncc1C(=O)NCCN(CC)CC [77.0508]	30	300
CCOc1nc(CC)ncc1C(=O)NCC1CCCN1C (stereo not shown) [compound 781021, 4-ethoxy 2-ethyl 5-(1-methylpyrrolidin-2-yl)methylamino carbonyl pyrimidine, fumarate]	10.5	115
CCN1CCCC1CNC(=O)c1cnc(SC)nc1OC (stereo not shown) [77.0840]	10	95
CCN(CC)CCNC(=O)c1cnc(N(C)C)nc1OC [77.1075]	16	200
CCN(CC)CCNC(=O)c1cnc(C)nc1OC [77.0766]	12	300
CCOc1nc(C)ncc1C(=O)NC[C@@H]1CCCN1CC [compound 780905]	0.88	175
COc1nc(C)ncc1C(=O)NCC1CCCN1CC1CCCCC1 (stereo not shown) [compound 780836]	9	140
CCN1CCCC1CNC(=O)c1cnc(N)nc1OC (stereo not shown) [76.0843]	6	300
CNc1ncc(C(=O)NC2CCN(Cc3ccccc3)CC2)c(OC)n1 [compound 771261]	2.4	70
COc1nc(N)ncc1C(=O)NC1CCN(Cc2ccccc2)C1 (stereo not shown) [77.0958]	1.5	150
COc1nc(C)ncc1C(=O)NC1CCN(Cc2ccccc2)CC1 [77.0878]	10	150

SMILES	ED50 [1] [mg/kg]	LD50 [2] [mg/kg]
COc1ccccc1N1CCN(CCNC(=O)c2cnc(C)nc2OC)CC1 [compound 780521]	5.25	140
COc1nc(N)ncc1C(=O)NCCN1CCc2ccccc2C1 [77.0862, 1-[5-(2-amino 4-methoxypyrimidinyl)carboxamido] 2-[(tetrahydro 1,2,3,4)isoquinolin-2-yl] ethane]	30	300
CCN1CCCC1CNC(=O)c1cnc(N(C)C)nc1OC (stereo not shown) [77.1057]	1.3	130
CCN1CCCC1CNC(=O)c1cnc(N)nc1OC(C)C (stereo not shown) [77.0871]	30	170
CCN1CCCC1CNC(=O)c1cnc(C)nc1OC(C)C (stereo not shown) [compound 780561]	3.3	170
COc1nc(C)ncc1C(=O)NC1CCN(Cc2ccc(F)cc2)C1 (stereo not shown) [compound 780560]	3	100
COc1nc(C)ncc1C(=O)NCc1cccn1C [compound 780204]	50	400
CCN(CC)CCNC(=O)c1cnc(N)nc1OC [76.0745]	30	650
CCCN1CCCC1CNC(=O)c1cnc(C)nc1OC (stereo not shown) [compound 780552]	12.5	140
CC(C)Oc1nc(N)ncc1C(=O)NC1CCN(Cc2ccccc2)CC1 [77.0872]	11	115
CCN1CCCC1CNC(=O)c1cnc(C(C)C)nc1OC (stereo not shown) [compound 780907]	10	120
CCN1CCCC1CNC(=O)c1cnc(C)nc1OC (stereo not shown) [77.0805]	7	200
COc1nc(C)ncc1C(=O)NCC1CCCN1Cc1ccc(F)cc1 (stereo not shown) [compound 780505]	15	155
CCOc1nc(CC)ncc1C(=O)NCC1CCCN1CC (stereo not shown) [compound 781022]	3	140
CCOc1nc(C)ncc1C(=O)NCC1CCCN1CC (stereo not shown) [compound 780336]	1.8	170
COc1nc(N)ncc1C(=O)NCC1CCCN1Cc1ccccc1 (stereo not shown) [77.0880]	9	180
CCN1CCCC1CNC(=O)c1cncnc1OC (stereo not shown) [77.0807]	18.5	300
CCOc1nc(C)ncc1C(=O)NCCN(CC)Cc1ccc(F)cc1 [compound 780887]	1	140
COc1nc(N)ncc1C(=O)NCC1CCCN1C (stereo not shown) [compound 780079]	11	225
COc1nc(N(C)C)ncc1C(=O)NC1CCN(Cc2ccccc2)CC1 [77.1011]	2.7	25
COc1nc(C)ncc1C(=O)NCCN1CCN(c2ccc(F)cc2)CC1 [compound 780686]	10	115
CCN(CCNC(=O)c1cnc(C)nc1OC)Cc1ccccc1 [compound 780327]	7	170
CCOc1nc(N)ncc1C(=O)NCC1CCCN1CC (stereo not shown) [77.0540]	3	150

SMILES	ED50 [1] [mg/kg]	LD50 [2] [mg/kg]
CCOc1nc(C)ncc1C(=O)NCC1CCCN1C (stereo not shown) [compound 781017]	4.1	150
COc1nc(N)ncc1C(=O)NC1CCN(Cc2ccc(F)cc2)C1 (stereo not shown) [compound 771274]	1.4	100
COc1nc(N)ncc1C(=O)NC1CCN(C2CCCCC2)C1 (stereo not shown) [77.1006]	3	175
COc1nc(C)ncc1C(=O)NCC1CCCN1Cc1ccccc1 (stereo not shown) [compound 780458]	13	140
COc1nc(C)ncc1C(=O)NCC1CCCN1C (stereo not shown) [compound 780680]	7.2	275
CCN1CCC[C@H]1CNC(=O)c1cnc(C)nc1OC [compound 780648]	3.2	200
CCN1CCCC1CNC(=O)c1cc(S(N)(=O)=O)ccc1OC (stereo not shown) [SULPIRIDE, Sulpiride, reference compound]	37	
CCCOc1nc(C)ncc1C(=O)NCC1CCCN1CC (stereo not shown) [compound 780432]	7.5	170
CCOc1nc(N(C)C)ncc1C(=O)NC[C@@H]1CCCN1CC [compound 781170]	2.3	120
COc1nc(C)ncc1C(=O)NC1CCN(Cc2ccccc2)C1 (stereo not shown) [compound 780326]	5.8	130
COc1ccccc1N1CCN(CCNC(=O)c2cnc(N)nc2OC)CC1 [76.0994]	3	150
CCN(CC)CCNC(=O)c1cnc(SC)nc1OC [77.0806]	30	150
CCCc1ncc(C(=O)NCC2CCCN2CC)c(OC)n1 (stereo not shown) [compound 780700]	17	200
CCCCN1CCCC1CNC(=O)c1cnc(N)nc1OC (stereo not shown) [77.1012]	7	110
CCN1CCC[C@H]1CNC(=O)c1cnc(N(C)C)nc1OC [compound 781171]	3	100
COc1nc(N)ncc1C(=O)NCCN(C)Cc1ccccc1 [77.0512, 1-[5-(2-amino 4-methoxypyrimidinyl)carboxamido] 2-[N-methyl N-benzylamino] ethane]	10	400
COc1ncc(C(=O)NC2CCN(Cc3ccccc3)CC2)c(OC)n1 [77.1244]	10	180
CCCCN1CCCC1CNC(=O)c1cnc(C)nc1OC (stereo not shown) [compound 780457]	17	160
COc1ncncc1C(=O)NC1CCN(Cc2ccccc2)CC1 [77.0886]	17.5	125
CCOc1nc(C)ncc1C(=O)NCCN(CC)Cc1ccccc1 [compound 780656]	6	140
CCN(CCNC(=O)c1cnc(C)nc1OC)CC1CCCCC1 [compound 780866]	4.7	120
